Measurements as given in publication PMC6151525, “Investigation of the N-Terminus Amino Function of Arg10-Teixobactin” (Molecules : A Journal of Synthetic Chemistry and Natural …, 2017).
Like-named read-outs stand apart in the source and are kept apart here.

Columns and labels:
[1] = test system: Bacillus subtilis ATCC 6051; assay type: cell-based; settings: ATCC 6051, 24 h
Experimental: (§1) After the purification and characterization of the new analogs by MALDI-TOF, their antimicrobial activity was tested against two gram-positive bacteria strains, Staphylococcus aureus and Bacillo subtilis, as well as two gram-negative strains, namely Escherichia coli and Pseudomonas aeruginosa (Table 1). […] They were then diluted to reach 512 μg/mL, the highest concentration tested, followed by two-fold serial dilution. […] The MIC was determined using the broth micro dilution method, as described by the Clinical and Laboratory Standards Institute (CLSI) guidelines, using two gram-positive and two gram-negative bacteria strains (Staphylococcus aureus ATCC 29213, Bacillus subtilis ATCC 6051, Escherichia coli ATCC 25922, Pseudomonas aeruginosa ATCC 27853). First, the bacterial strains were sub-cultured onto Mueller Hinton agar and incubated at 37 °C for 24 h before use in the experiments. Stock solutions at 6 mg/mL in 10% DMSO were prepared for analogs 1–4 and 60% DMSO for analogs 5, 6, and 8. Second, two-fold serial dilutions of each drug/compound were made in cation-adjusted Mueller Hinton broth (CAMHB) in a 96-well microtiter plate. The bacterial inoculum was prepared in distilled water, matched to a 0.5 McFarland standard, and added to make a final volume of 200 µL in each microliter well. The plates were incubated for 24 h at 37 °C under aerobic conditions. The MIC was then recorded as the lowest concentration at which no visible growth occurred. Standard drug, media, and bacterial growth control wells were included in each plate. […] The assay was performed in triplicate to confirm the results.

[2] = assay type: physicochemical
Experimental: The most hydrophobic analogs, 5, 6, and 8, presented several difficulties regarding purification. […] Nevertheless, by washing the solid obtained several times with 30% acetonitrile in water, impurities from the cyclization were removed, as were the protecting groups, and the decanoyl derivative was obtained in good purity (Figure S11). The mixture of compounds 5 and 6 was also a challenge with respect to solubilization. In this case, the addition first of 100 μL of TFA and then 7 mL of acetonitrile, followed by sonication for 15 min, yielded a clear solution. Then, 3 mL of water was added slowly and no precipitation of the compounds was observed. This solution was injected into the semi-preparative HPLC, and the two analogs were separated efficiently.
After the purification and characterization of the new analogs by MALDI-TOF, their antimicrobial activity was tested against two gram-positive bacteria strains, Staphylococcus aureus and Bacillo subtilis, as well as two gram-negative strains, namely Escherichia coli and Pseudomonas aeruginosa (Table 1). […] They were then diluted to reach 512 μg/mL, the highest concentration tested, followed by two-fold serial dilution.

[3] = test system: Staphylococcus aureus ATCC 29213; assay type: cell-based; settings: ATCC 29213, 24 h
Experimental: as §1

[4] = test system: Escherichia coli ATCC 25922; settings: Gram−; natural teixobactin, reference line of Table 1; cited from earlier work
Text: Table 1 Minimum Inhibitory Concentration (MIC) (µg/mL) for teixobactin analogs (1–6, 8–10). | column: Gram− / E. coli ATCC 25922

[5] = test system: Pseudomonas aeruginosa ATCC 27853; settings: Gram−; natural teixobactin, reference line of Table 1; cited from earlier work
Text: Table 1 Minimum Inhibitory Concentration (MIC) (µg/mL) for teixobactin analogs (1–6, 8–10). | column: Gram− / P. aerug ATCC 27853

[6] = test system: Staphylococcus aureus ATCC 29213; settings: Gram+; natural teixobactin, reference line of Table 1; cited from earlier work
Text: Table 1 Minimum Inhibitory Concentration (MIC) (µg/mL) for teixobactin analogs (1–6, 8–10). | column: Gram+ / S. aureus ATCC 29213

[7] = test system: Bacillus subtilis ATCC 6051; settings: Gram+; natural teixobactin, reference line of Table 1; cited from earlier work
Text: Table 1 Minimum Inhibitory Concentration (MIC) (µg/mL) for teixobactin analogs (1–6, 8–10). | column: Gram+ / B. subtilis ATCC 6051

[8] = test system: Escherichia coli ATCC 25922; assay type: cell-based; settings: ATCC 25922, 24 h
Experimental: as §1

[9] = test system: Pseudomonas aeruginosa ATCC 27853; experiment: MIC, broth microdilution (CLSI); assay type: cell-based; settings: Gram−, CAMHB, 24 h at 37 °C, two-fold dilutions from 512 µg/mL, triplicate
Experimental: After the purification and characterization of the new analogs by MALDI-TOF, their antimicrobial activity was tested against two gram-positive bacteria strains, Staphylococcus aureus and Bacillo subtilis, as well as two gram-negative strains, namely Escherichia coli and Pseudomonas aeruginosa (Table 1). […] They were then diluted to reach 512 μg/mL, the highest concentration tested, followed by two-fold serial dilution. […] The MIC was determined using the broth micro dilution method, as described by the Clinical and Laboratory Standards Institute (CLSI) guidelines, using two gram-positive and two gram-negative bacteria strains (Staphylococcus aureus ATCC 29213, Bacillus subtilis ATCC 6051, Escherichia coli ATCC 25922, Pseudomonas aeruginosa ATCC 27853). First, the bacterial strains were sub-cultured onto Mueller Hinton agar and incubated at 37 °C for 24 h before use in the experiments. Stock solutions at 6 mg/mL in 10% DMSO were prepared for analogs 1–4 and 60% DMSO for analogs 5, 6, and 8. Second, two-fold serial dilutions of each drug/compound were made in cation-adjusted Mueller Hinton broth (CAMHB) in a 96-well microtiter plate. The bacterial inoculum was prepared in distilled water, matched to a 0.5 McFarland standard, and added to make a final volume of 200 µL in each microliter well. […] The MIC was then recorded as the lowest concentration at which no visible growth occurred. […]

CCCCCCCCCCN[C@H](Cc1ccccc1)C(=O)N[C@H](C(=O)N[C@@H](CO)C(=O)N[C@H](CCC(N)=O)C(=O)N[C@@H](C(=O)N[C@H](C(=O)N[C@@H](CO)C(=O)N[C@H]1C(=O)N[C@@H](C)C(=O)N[C@@H](CCCNC(=N)N)C(=O)N[C@@H]([C@@H](C)CC)C(=O)O[C@H]1C)[C@@H](C)CC)[C@@H](C)CC)[C@@H](C)CC [compound 5, N-De-D-Phe-Arg10-teixobactin]
Minimum Inhibitory Concentration (MIC) B. subtilis ATCC 6051 [1]: 128 µg/mL
solubility in water [2]: poor solubility in water

CC[C@H](C)[C@H](NC(=O)[C@@H](Cc1ccccc1)N=C(N(C)C)N(C)C)C(=O)N[C@@H](CO)C(=O)N[C@H](CCC(N)=O)C(=O)N[C@@H](C(=O)N[C@H](C(=O)N[C@@H](CO)C(=O)N[C@H]1C(=O)N[C@@H](C)C(=O)N[C@@H](CCCNC(=N)N)C(=O)N[C@@H]([C@@H](C)CC)C(=O)O[C@H]1C)[C@@H](C)CC)[C@@H](C)CC [compound 10, N-Tmg-D-Phe-Arg10-teixobactin]
Minimum Inhibitory Concentration (MIC) S. aureus ATCC 29213 [3]: 256 µg/mL
Minimum Inhibitory Concentration (MIC) B. subtilis ATCC 6051 [1]: 64 µg/mL

CCCCCCCCCCN(CCCCCCCCCC)[C@H](Cc1ccccc1)C(=O)N[C@H](C(=O)N[C@@H](CO)C(=O)N[C@H](CCC(N)=O)C(=O)N[C@@H](C(=O)N[C@H](C(=O)N[C@@H](CO)C(=O)N[C@H]1C(=O)N[C@@H](C)C(=O)N[C@@H](CCCNC(=N)N)C(=O)N[C@@H]([C@@H](C)CC)C(=O)O[C@H]1C)[C@@H](C)CC)[C@@H](C)CC)[C@@H](C)CC [compound 6, N-De2-D-Phe-Arg10-teixobactin]
Minimum Inhibitory Concentration (MIC) B. subtilis ATCC 6051 [1]: 128 µg/mL
solubility in water [2]: poor solubility in water

Teixobactin
Minimum Inhibitory Concentration (MIC) E. coli ATCC 25922 [4]: 25 µg/mL
Minimum Inhibitory Concentration (MIC) P. aerug ATCC 27853 [5]: >32 µg/mL
Minimum Inhibitory Concentration (MIC) S. aureus ATCC 29213 [6]: 0.25 µg/mL
Minimum Inhibitory Concentration (MIC) B. subtilis ATCC 6051 [7]: 0.06 µg/mL

CC[C@H](C)[C@H](NC(=O)[C@H](N)Cc1ccccc1)C(=O)N[C@@H](CO)C(=O)N[C@H](CCC(N)=O)C(=O)N[C@@H](C(=O)N[C@H](C(=O)N[C@@H](CO)C(=O)N[C@H]1C(=O)N[C@@H](C)C(=O)N[C@@H](CCCNC(=N)N)C(=O)N[C@@H]([C@@H](C)CC)C(=O)O[C@H]1C)[C@@H](C)CC)[C@@H](C)CC [compound 2, D-Phe-Arg10-teixobactin]
Minimum Inhibitory Concentration (MIC) E. coli ATCC 25922 [8]: 32 µg/mL
Minimum Inhibitory Concentration (MIC) S. aureus ATCC 29213 [3]: 2 µg/mL
Minimum Inhibitory Concentration (MIC) B. subtilis ATCC 6051 [1]: 1 µg/mL

N-Dec-D-Phe-Arg10-teixobactin [compound 8]
solubility in solvent systems compatible with reverse-phase chromatography [2]: not possible to dissolve
solubility in water [2]: poor solubility in water

CC[C@H](C)[C@H](NC(=O)[C@@H](Cc1ccccc1)N(C)C)C(=O)N[C@@H](CO)C(=O)N[C@H](CCC(N)=O)C(=O)N[C@@H](C(=O)N[C@H](C(=O)N[C@@H](CO)C(=O)N[C@H]1C(=O)N[C@@H](C)C(=O)N[C@@H](CCCNC(=N)N)C(=O)N[C@@H]([C@@H](C)CC)C(=O)O[C@H]1C)[C@@H](C)CC)[C@@H](C)CC [compound 3, N-Me2-D-Phe-Arg10-teixobactin]
Minimum Inhibitory Concentration (MIC) E. coli ATCC 25922 [8]: 128 µg/mL
Minimum Inhibitory Concentration (MIC) S. aureus ATCC 29213 [3]: 16 µg/mL
Minimum Inhibitory Concentration (MIC) B. subtilis ATCC 6051 [1]: 2 µg/mL

CC[C@H](C)[C@H](NC(=O)[C@@H](Cc1ccccc1)NC)C(=O)N[C@@H](CO)C(=O)N[C@H](CCC(N)=O)C(=O)N[C@@H](C(=O)N[C@H](C(=O)N[C@@H](CO)C(=O)N[C@H]1C(=O)N[C@@H](C)C(=O)N[C@@H](CCCNC(=N)N)C(=O)N[C@@H]([C@@H](C)CC)C(=O)O[C@H]1C)[C@@H](C)CC)[C@@H](C)CC [compound 1, N-Me-D-Phe-Arg10-teixobactin]
Minimum Inhibitory Concentration (MIC) E. coli ATCC 25922 [8]: 64 µg/mL
Minimum Inhibitory Concentration (MIC) S. aureus ATCC 29213 [3]: 2 µg/mL
Minimum Inhibitory Concentration (MIC) B. subtilis ATCC 6051 [1]: 0.5 µg/mL
Minimum Inhibitory Concentration (MIC) P. aerug ATCC 27853 [9]: NI ^1
